These results are taken from ChEMBL document CHEMBL1201862, “PubChem BioAssay data set” (2004).

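Protocol summary: plate cells (96-well), add compound at 5 concentrations, incubate 48 h, interpolate endpoints linearly. The concentration for 50% growth inhibition is given as GI50.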 Calls of active or inactive are those of the source. Rule as the data show it: active = GI50 up to about 1.1 µM and inactive = higher. Where only a bound is given, the exact number is not on record here.

Some test systems named below: 786-0; A498; ACHN; CAKI-1; IGROV-1; LOX IMVI; M14; NCI-H460; OVCAR-8; RPMI-8226; SF-539; SK-MEL-28; SK-MEL-2; SK-MEL-5; SNB-78; SW-620; U-251; SK-OV-3.
Common to all, as to experiment: growth of human tumour cells (NCI), 48 h

For the molecule `CC1=C(C(=O)Nc2cc(=O)n(C)c(=O)n2C)C(c2ccco2)C(C(=O)Nc2cc(=O)n(C)c(=O)n2C)=C(C)N1`, the GI50 in the assay with 786-0, in the assay with A498, in the assay with ACHN, in the assay with CAKI-1, in the assay with IGROV-1 and in the assay on LOX IMVI was > 100 µM (inactive) each time. For the same molecule, the GI50 in the assay on M14, with NCI-H460, in the assay on OVCAR-8, in the assay on RPMI-8226, with SF-539 and with SK-MEL-28 was > 100 µM (inactive) throughout. Also, the GI50 with SK-MEL-2, with SK-MEL-5, with SNB-78, in the assay with SW-620 and in the assay with U-251 was > 100 µM (inactive) each time.

`COc1cc2c(c(OC)c1)C1(CC(CC#N)C2)SCCS1` (stereo unspecified): the GI50 in the assay with 786-0, with A498, with ACHN, with CAKI-1, in the assay with IGROV-1 and in the assay on M14 was > 100 µM (inactive) each time. Besides, the GI50 in the assay with NCI-H460, in the assay on OVCAR-8, in the assay on RPMI-8226, with SF-539, in the assay on SK-MEL-28 and in the assay with SK-MEL-2 was > 100 µM (inactive) in each case. Also, the GI50 in the assay with SK-MEL-5 is 62.2 µM (inactive); in the assay with SK-OV-3, > 100 µM (inactive); with SNB-78, > 100 µM (inactive); in the assay with SW-620 it was > 100 µM (inactive); in the assay with U-251, > 100 µM (inactive).

Take `O=C(c1ccccn1)c1nc(-c2ccc(Cl)c(Cl)c2)nc2ccc(Cl)cc12`: the GI50 with 786-0 was 44.6 µM (inactive); in the assay with A498 it was 45.1 µM (inactive); with ACHN it was 44.3 µM (inactive); in the assay with CAKI-1 it was 56.6 µM (inactive); in the assay with IGROV-1, 35 µM (inactive); in the assay with M14, > 100 µM (inactive). For the same molecule, the GI50 was 50.4 µM (inactive) with NCI-H460; > 100 µM (inactive) in the assay with OVCAR-8; > 100 µM (inactive) with RPMI-8226; 18.1 µM (inactive) with SF-539; > 100 µM (inactive) in the assay on SK-MEL-28; 34.3 µM (inactive) with SK-MEL-2. In addition, the GI50 was 51.9 µM (inactive) in the assay on SK-MEL-5; 36.4 µM (inactive) in the assay with SK-OV-3; > 100 µM (inactive) with SNB-78; > 100 µM (inactive) with SW-620; 44.1 µM (inactive) in the assay with U-251.

On to `CN(C)C(=S)/N=c1\ss/c(=N\C(=S)N(C)C)n1-c1ccc(Cl)c(Cl)c1`, for which the GI50 with 786-0, in the assay with A498, in the assay on ACHN, in the assay on CAKI-1, in the assay on IGROV-1 and with LOX IMVI was > 100 µM (inactive) throughout. Besides, the GI50 with M14, with NCI-H460, with OVCAR-8, with RPMI-8226, with SF-539 and with SK-MEL-28 was > 100 µM (inactive) each time. Also, the GI50 was > 100 µM (inactive) in the assay with SK-MEL-2; > 100 µM (inactive) in the assay on SK-MEL-5; > 100 µM (inactive) with SK-OV-3; 67.1 µM (inactive) in the assay on SNB-78; > 100 µM (inactive) in the assay on SW-620; > 100 µM (inactive) in the assay on U-251.

For the molecule `COC(=O)/C=C/C1C2C3(CCC(C)C12C)OCCS3` (stereo unspecified), the GI50 in the assay on 786-0, in the assay on A498, in the assay on ACHN, in the assay with IGROV-1, in the assay on LOX IMVI and in the assay with M14 was > 100 µM (inactive) in each case. For the same molecule, the GI50 with NCI-H460, in the assay on OVCAR-8, in the assay on SF-539, in the assay with SK-MEL-28, with SK-MEL-2 and in the assay on SK-MEL-5 was > 100 µM (inactive) each time. The GI50 in the assay on SK-OV-3, in the assay with SNB-78, in the assay with SW-620 and in the assay on U-251 was > 100 µM (inactive) in each case.

Consider `Nc1ccn([C@@H]2C[C@H](CO)[C@@H](O)[C@H]2O)c(=O)n1`, for which the GI50 in the assay on 786-0, in the assay on A498, in the assay on ACHN, with CAKI-1, with IGROV-1 and with M14 was > 57.7 µM (inactive) in each case. Moreover, the GI50 in the assay with NCI-H460, in the assay with OVCAR-8, in the assay with RPMI-8226, with SF-539, in the assay on SK-MEL-28 and in the assay with SK-MEL-2 was > 57.7 µM (inactive) in each case. In addition, the GI50 with SK-MEL-5, in the assay with SK-OV-3, in the assay on SNB-78, with SW-620 and with U-251 was > 57.7 µM (inactive) in each case.

With `COc1ccc(OC)c2[s+]snc12`, the GI50 in the assay on 786-0 is > 100 µM (inactive); in the assay with A498 it was > 100 µM (inactive); in the assay with ACHN, 91.2 µM (inactive); in the assay with CAKI-1, > 100 µM (inactive); in the assay with IGROV-1 it was > 100 µM (inactive); in the assay with LOX IMVI, 35.6 µM (inactive). For the same molecule, the GI50 is 63.2 µM (inactive) with M14; 36.6 µM (inactive) in the assay with NCI-H460; 31.7 µM (inactive) in the assay on OVCAR-8; 21.4 µM (inactive) with SF-539; 83.8 µM (inactive) in the assay with SK-MEL-28; 33.8 µM (inactive) in the assay on SK-MEL-2. The GI50 is 19 µM (inactive) in the assay on SK-MEL-5; > 100 µM (inactive) in the assay on SK-OV-3; > 100 µM (inactive) in the assay with SNB-78; 68.2 µM (inactive) in the assay with SW-620; 28 µM (inactive) in the assay with U-251.

As to `COc1ccc(OCC(=O)O)c2c1CCCC2=O`, the GI50 with 786-0, in the assay on A498, in the assay with ACHN, in the assay on IGROV-1, with LOX IMVI and in the assay on M14 was > 100 µM (inactive) in each case. For the same molecule, the GI50 in the assay with NCI-H460, in the assay on OVCAR-8, in the assay on RPMI-8226, in the assay on SF-539, with SK-MEL-28 and in the assay with SK-MEL-2 was > 100 µM (inactive) each time. Further, the GI50 in the assay with SK-MEL-5, with SK-OV-3, in the assay on SNB-78, in the assay with SW-620 and in the assay on U-251 was > 100 µM (inactive) each time.

As to `COC(=O)C(=O)C(C#N)c1cccc2ccccc12` (stereo unspecified), the GI50 in the assay with 786-0, in the assay on A498, with ACHN, in the assay with CAKI-1, in the assay on IGROV-1 and in the assay on LOX IMVI was > 100 µM (inactive) in each case. Also, the GI50 with M14, in the assay on OVCAR-8, with RPMI-8226, in the assay with SF-539, with SK-MEL-28 and in the assay on SK-MEL-5 was > 100 µM (inactive) each time. Moreover, the GI50 in the assay with SK-OV-3, in the assay with SNB-78, in the assay on SW-620 and with U-251 was > 100 µM (inactive) each time.

For `O=C1CC2CCN(C(=O)c3ccccc3)CC2CCN1` (stereo unspecified), the GI50 in the assay on 786-0, in the assay with A498, with ACHN, in the assay with IGROV-1, with LOX IMVI and with M14 was > 100 µM (inactive) each time. Besides, the GI50 in the assay with NCI-H460 is > 100 µM (inactive); with OVCAR-8 it was > 100 µM (inactive); in the assay with RPMI-8226 it was > 100 µM (inactive); in the assay on SF-539 it was > 100 µM (inactive); with SK-MEL-28, > 100 µM (inactive); in the assay with SK-MEL-2, 0.578 µM (active). The GI50 in the assay with SK-MEL-5, in the assay with SK-OV-3, with SNB-78, in the assay with SW-620 and in the assay on U-251 was > 100 µM (inactive) each time.

Turning to `O=C(NC12CC3CC(CC(C3)C1)C2)C(=O)c1c[nH]c2ccc(Br)cc12`, the GI50 is 7.13 µM (inactive) with 786-0; 15.6 µM (inactive) in the assay with ACHN; 39.3 µM (inactive) in the assay with CAKI-1; 45.5 µM (inactive) in the assay on IGROV-1; 5.25 µM (inactive) in the assay with LOX IMVI; 7.05 µM (inactive) with M14. The GI50 is 10.2 µM (inactive) with NCI-H460; 18.1 µM (inactive) in the assay with OVCAR-8; 6.67 µM (inactive) in the assay with RPMI-8226; 19 µM (inactive) in the assay on SF-539; 43.1 µM (inactive) in the assay with SK-MEL-28; 56.9 µM (inactive) in the assay with SK-MEL-2. The GI50 in the assay with SK-MEL-5 is 41 µM (inactive); with SK-OV-3, 25.9 µM (inactive); in the assay on SNB-78, 35.7 µM (inactive); in the assay with SW-620, 25 µM (inactive); in the assay with U-251 it was 12.1 µM (inactive).

Consider `O=C(NC12CC3CCC1CC(C3)C2)[C@@H]1CCCN1C(=O)OCc1ccccc1` (stereo partly specified), for which the GI50 with 786-0 was 76.7 µM (inactive); in the assay on A498 it was 27.9 µM (inactive); in the assay on ACHN, 44 µM (inactive); with IGROV-1, > 100 µM (inactive); in the assay on LOX IMVI it was 59 µM (inactive); in the assay with M14 it was 85.9 µM (inactive). Further, the GI50 was 50.5 µM (inactive) in the assay with OVCAR-8; 36.5 µM (inactive) with RPMI-8226; > 100 µM (inactive) in the assay on SF-539; 31.1 µM (inactive) with SK-MEL-28; 40.6 µM (inactive) in the assay on SK-MEL-2; 65.3 µM (inactive) in the assay with SK-OV-3. The GI50 with SNB-78 is 49.9 µM (inactive); in the assay with SW-620, 77.3 µM (inactive); in the assay on U-251, 42.4 µM (inactive).
